Measurements reported in article PMC10384675, “Novel Thiazolidine-2,4-dione-trimethoxybenzene-thiazole Hybrids as Human Topoisomerases Inhibitors” (Pharmaceuticals, 2023).

What was measured:
MCF-7 cells [1] = test: Mitochondria and cytochrome c immunostaining; format: cell-based, human; conditions: at IC50 value, 24 h
Description: In order to establish whether the observed cell death could be ascribed to the induction of the apoptotic pathway, we performed immunostaining assays using an anti-cytochrome c (cyt c) antibody and the mitochondrial probe MitoTracker Deep Red FM, which would allow us to verify whether cyt c was released from mitochondria to the cell cytoplasm or not. In Figure 6, panels B,C, it is possible to visualize the intracellular localization of cyt c (green fluorescence) and mitochondria (red fluorescence). […] Indeed, as visible in the overlay channel (panel D), the two fluorescence signals (red and green) were no longer superimposable.
Cells grown on glass coverslips in full medium were serum-deprived for 24 h, then the compound (or only vehicle) was added (24 h, 7e at its IC50 value). Next, cells were incubated with a staining solution containing MitoTracker® Deep Red FM probe (MitoTracker® Mitochondrion-Selective Probes, Invitrogen European Headquarters, Paisley PA4 9RF, UK; fluorescence excitation = 644, fluorescence emission = 665) for 20 min, at 37 °C. After a PBS wash, cells were fixed (cold methanol, 15 min at −20 °C) and incubated with the mouse anti-cytochrome c (556 433) primary antibody, purchased from BD, diluted in the blocking solution (4 °C/overnight), as described in [60]. […]

MCF-7 cells [2] = test: TUNEL assay; format: cell-based, human; conditions: at IC50 value, 24 h
Description: Numerous data in the literature indicate that topoisomerase inhibitors are among the most efficient inducers of apoptosis. […] As reference molecule, we adopted ellipticine for this assay, also. […] In contrast, no fluorescence was visible in the DMSO-treated cells used as negative control (Figure 5, CTRL, panel B). These outcomes indicated the ability of the studied compound to induce DNA damage, as ellipticine did, triggering cancer cells death.
Cell apoptosis was detected by means of the TUNEL assay, following the manufacturer’s protocols (CF™488A TUNEL Assay Apoptosis Detection Kit, Biotium, Hayward, CA, USA), with few modifications, as already reported. DAPI staining (0.2 μg/mL, Sigma Aldrich, Milan, Italy) was used for cell nuclei. A fluorescence microscope (Leica DM 6000) was used for the observations at 20× magnification. LAS-X software allowed the acquisition and processing of all of the images, which were representative of three separate experiments.
Figure 5 TUNEL assay. MCF-7 breast cancer cells were exposed to compounds 7e and ellipticine (E) at their IC50 values, or to the vehicle (DMSO) for 24 h. Then, they were further processed, as reported in Section 4, and imaged under a fluorescence microscope (20× magnification). Panels (A), DAPI λex,em= 350 nm/460 nm; panels (B), CF^TM488A, λex,em = 490 nm/515 nm; panels (C) show the merge channel.

caspases 3/7 = test: Caspase-Glo assay, caspase-3/7; format: cell-based, human; conditions: MCF-7 cells, at IC50 value, 24 h, vs vehicle
Protocol: Once established that mitochondria were damaged and cyt c released into the cytoplasm, we evaluated the ability of compound 7e treatment (used at its IC50 value) in modulating caspase activity.
The caspase-Glo Assay (Caspase-Glo® 3/7, 8 and 9 Assay Systems, Promega Corporation, Madison, WI) was used to detect caspase-3/7, -8 and -9 activities, as reported in [82]. Briefly, cells were grown in white-walled 96-well plates, treated with the compound, and 100 µL of each […] was added.
Figure 7 Caspase activity in MCF-7 cells. […] Columns mean, bars SD; * p < 0.001; n.s., not significant (treated vs. CTRL).

hTopo II = target: T1, hTopo II (Homo sapiens, UniProt P11388); test: hTopo II decatenation assay; format: biochemical; set-up: key to Topoisomerase Inhibition hTopo II: (+) inhibition; (−) no inhibition; (+/−) partial inhibition
T1 construct: purchased TopoGEN, Port Orange, FL
T1 sequence (P11388 whole entry): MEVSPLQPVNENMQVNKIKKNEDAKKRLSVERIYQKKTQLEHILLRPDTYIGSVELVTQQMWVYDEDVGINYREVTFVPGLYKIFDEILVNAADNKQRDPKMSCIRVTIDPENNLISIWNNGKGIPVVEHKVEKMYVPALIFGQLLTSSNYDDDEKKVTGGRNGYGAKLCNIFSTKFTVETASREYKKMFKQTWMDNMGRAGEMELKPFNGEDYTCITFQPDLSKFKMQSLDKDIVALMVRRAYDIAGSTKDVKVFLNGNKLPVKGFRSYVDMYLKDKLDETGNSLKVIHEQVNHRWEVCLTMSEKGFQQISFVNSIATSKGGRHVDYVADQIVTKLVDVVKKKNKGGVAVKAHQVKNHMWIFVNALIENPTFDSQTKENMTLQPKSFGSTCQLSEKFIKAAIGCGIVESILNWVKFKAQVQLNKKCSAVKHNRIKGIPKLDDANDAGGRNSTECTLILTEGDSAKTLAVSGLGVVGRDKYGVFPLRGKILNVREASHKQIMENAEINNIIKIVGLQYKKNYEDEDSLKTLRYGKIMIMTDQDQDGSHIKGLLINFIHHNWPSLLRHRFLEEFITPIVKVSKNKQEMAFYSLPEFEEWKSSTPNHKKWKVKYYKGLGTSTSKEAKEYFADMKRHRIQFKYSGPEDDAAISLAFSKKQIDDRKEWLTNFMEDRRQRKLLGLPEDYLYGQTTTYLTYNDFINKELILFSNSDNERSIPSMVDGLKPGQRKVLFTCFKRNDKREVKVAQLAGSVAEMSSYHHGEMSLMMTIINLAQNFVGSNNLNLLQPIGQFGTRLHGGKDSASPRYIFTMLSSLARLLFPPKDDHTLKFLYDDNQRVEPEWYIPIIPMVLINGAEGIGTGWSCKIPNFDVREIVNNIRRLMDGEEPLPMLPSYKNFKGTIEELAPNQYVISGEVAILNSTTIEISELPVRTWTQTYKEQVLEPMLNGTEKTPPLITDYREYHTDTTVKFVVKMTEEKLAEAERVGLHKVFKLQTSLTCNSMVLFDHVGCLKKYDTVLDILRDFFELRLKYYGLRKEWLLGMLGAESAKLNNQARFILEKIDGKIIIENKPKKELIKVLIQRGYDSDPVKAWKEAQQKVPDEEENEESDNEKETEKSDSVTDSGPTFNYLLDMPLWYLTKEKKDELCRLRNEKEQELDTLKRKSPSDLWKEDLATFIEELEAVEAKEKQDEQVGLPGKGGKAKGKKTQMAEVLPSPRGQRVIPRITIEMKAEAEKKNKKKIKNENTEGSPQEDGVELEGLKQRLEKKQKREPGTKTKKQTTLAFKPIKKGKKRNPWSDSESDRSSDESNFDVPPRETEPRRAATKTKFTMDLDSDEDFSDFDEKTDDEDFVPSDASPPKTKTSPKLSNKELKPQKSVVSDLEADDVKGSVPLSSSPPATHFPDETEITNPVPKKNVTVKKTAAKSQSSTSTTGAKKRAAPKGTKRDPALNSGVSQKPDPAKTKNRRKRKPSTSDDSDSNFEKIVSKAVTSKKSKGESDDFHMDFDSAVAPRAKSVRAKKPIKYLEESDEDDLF
Protocol: The linear kDNA (Figure 4a,b, lanes A), decatenated kDNA (Figure 4a,b, lanes B) and the catenated circles of kDNA (Figure 4a,b, lanes C) were used as markers. A parallel experiment was performed using ellipticine as reference molecule.
hTopo I relaxation assays were performed by incubating the substrate (supercoiled pHOT1) with the recombinant hTopo I (TopoGEN, Port Orange, FL, USA) and compounds, as indicated in the supplier protocol (TopoGEN, Port Orange, FL, USA), with some revisions. hTopo II decatenation assays were conducted by incubating the kinetoplast DNA substrate (kDNA) with the hTopo II (TopoGEN, Port Orange, FL) and studied compounds, as indicated in the supplier procedures (TopoGEN, Port Orange, FL, USA), with some changes as in [80].
Figure 4 hTopo II decatenation assay. […] The same experiment was performed using ellipticine (c). Lane 1, decatenated kDNA marker; lane 2, linear kDNA marker; lane 3, CTRL (DMSO), lanes 4–5, ellipticine 10 and 50 µM, respectively.

caspases 3/7 activity (caspases 3/7): higher activity | Topoisomerase Inhibition hTopo II (hTopo II; 10 µM): − | Topoisomerase Inhibition hTopo II (hTopo II; 50 µM): +
SMILES: COc1cc(/C=C2\SC(=O)N(CC(=O)Nc3nc(-c4ccc(Br)cc4)cs3)C2=O)cc(OC)c1OC [compound 7e, (Z)-2-(5-(3,4,5-Trimethoxybenzylidene)thiazolidin-2,4-dion-3-yl)-N-(4-(4-bromophenyl)thiazol-2-yl)acetamide]
cytochrome c release from mitochondria into the cytoplasm (MCF-7 cells [1]): cyt c was released into the cell cytoplasm | apoptosis (TUNEL, green nuclear fluorescence) (MCF-7 cells [2]): had undergone the apoptotic process
